These results are taken from ChEMBL document CHEMBL4680278 (J Med Chem, 2020).

The nature of data set [1]: Drug degradation in simulated gastric fluid at 40 mg incubated for 2 hrs by UPLC-MS analysis. The settings on record: read-out: Drug degradation. The class given is ADME.
Data set [2] can be described thus: Volume of distribution in human at 20 mg, iv measured after 0.05 to 72 hrs by gas chromatograph mass spectrometry. The class given is ADME, organism-based. The following applies: in vivo, time 0.05-72 hrs.
The nature of data set [3]: Elimination half-life in human at 10 mg, po using PTL401 formulation measured upto 24 hrs by LC-MS/MS assay. In kind it is ADME, organism-based. The following applies: in vivo, read-out: beta t1/2 (converted).
The target of another data set is T1, Cytochrome P450 2B6 (Homo sapiens, UniProt P20813).
T1 sequence (P20813 whole entry): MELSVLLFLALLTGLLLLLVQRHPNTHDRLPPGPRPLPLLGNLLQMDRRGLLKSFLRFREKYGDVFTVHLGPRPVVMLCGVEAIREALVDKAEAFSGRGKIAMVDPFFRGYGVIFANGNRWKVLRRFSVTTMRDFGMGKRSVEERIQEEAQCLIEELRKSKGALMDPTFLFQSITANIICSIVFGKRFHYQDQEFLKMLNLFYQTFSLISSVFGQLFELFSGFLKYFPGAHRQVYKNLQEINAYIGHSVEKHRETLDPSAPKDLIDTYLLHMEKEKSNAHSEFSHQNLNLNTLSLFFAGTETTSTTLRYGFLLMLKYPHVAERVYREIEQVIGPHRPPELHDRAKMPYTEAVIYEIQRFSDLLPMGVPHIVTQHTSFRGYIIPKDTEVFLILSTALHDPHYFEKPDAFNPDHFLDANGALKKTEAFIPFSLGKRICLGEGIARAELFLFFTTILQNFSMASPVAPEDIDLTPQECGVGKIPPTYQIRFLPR
As to the kind of experiment: Mixed type inhibition of human recombinant CYP2B6 expressed in baculovirus-infected insect cells using […] as substrate preincubated for 5 mins followed by NADPH-generating system addition by Lineweaver-Burk plot analysis. In kind it is ADME.

For another data set, the target named is Histamine H3 receptor (Homo sapiens, UniProt Q9Y5N1). As to the kind of experiment: Inhibition of histamine H3 receptor (unknown origin).
The target in another data set is T2, Cytochrome P450 2C11 (Rattus norvegicus, UniProt P08683).
T2 sequence (P08683 whole entry): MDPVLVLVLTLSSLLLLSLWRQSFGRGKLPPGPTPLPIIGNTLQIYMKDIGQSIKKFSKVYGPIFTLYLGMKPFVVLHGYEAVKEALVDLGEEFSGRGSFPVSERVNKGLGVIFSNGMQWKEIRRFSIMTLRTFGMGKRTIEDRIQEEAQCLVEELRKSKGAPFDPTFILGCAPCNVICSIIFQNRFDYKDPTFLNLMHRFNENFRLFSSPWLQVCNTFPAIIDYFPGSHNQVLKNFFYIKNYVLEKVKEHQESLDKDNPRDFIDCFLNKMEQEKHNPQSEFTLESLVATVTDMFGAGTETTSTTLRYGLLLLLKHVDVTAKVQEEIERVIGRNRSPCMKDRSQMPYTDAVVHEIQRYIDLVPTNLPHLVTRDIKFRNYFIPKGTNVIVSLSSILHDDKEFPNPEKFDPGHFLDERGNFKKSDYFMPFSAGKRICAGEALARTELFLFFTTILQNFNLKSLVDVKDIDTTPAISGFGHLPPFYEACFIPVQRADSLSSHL
As to the kind of experiment: Competitive inhibition of CYP2C11 in rat liver microsomes. The class given is ADME. A general note: Liver microsomes are vesicles of endoplasmic reticulum, rich in cytochrome P450 enzymes.

In another data set the target is T3, Cytochrome P450 1A2 (Homo sapiens, UniProt P05177).
T3 sequence (P05177 whole entry): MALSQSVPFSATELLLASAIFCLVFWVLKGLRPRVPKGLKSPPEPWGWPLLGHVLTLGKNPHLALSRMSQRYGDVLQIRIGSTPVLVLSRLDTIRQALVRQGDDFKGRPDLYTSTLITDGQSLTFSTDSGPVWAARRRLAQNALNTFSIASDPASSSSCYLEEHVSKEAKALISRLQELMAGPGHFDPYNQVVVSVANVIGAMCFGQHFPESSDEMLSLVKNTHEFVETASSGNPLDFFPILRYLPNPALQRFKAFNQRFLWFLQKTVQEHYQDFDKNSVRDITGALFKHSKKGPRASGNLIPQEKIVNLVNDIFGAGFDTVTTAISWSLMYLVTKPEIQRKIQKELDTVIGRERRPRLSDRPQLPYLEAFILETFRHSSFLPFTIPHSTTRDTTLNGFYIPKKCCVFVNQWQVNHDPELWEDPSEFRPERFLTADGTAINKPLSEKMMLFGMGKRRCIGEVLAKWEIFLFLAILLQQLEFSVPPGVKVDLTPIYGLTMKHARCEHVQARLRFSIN
The data set is described as follows: Competitive inhibition of human recombinant CYP1A2 using 7-Ethoxyresorufin as substrate by Lineweaver-Burk plot analysis. In kind it is ADME. The following applies: read-out: Ki(app).

A short description of data set [4]: Elimination half-life in human at 20 mg using aerosol spray measured for 6 weeks. In kind it is ADME. The settings on record: in vivo, inhaled_or_intranasal, 1008 h.
In the next data set the target is D(1A) dopamine receptor (Homo sapiens, UniProt P21728). As to the kind of experiment: Inhibition of D1 dopamine receptor (unknown origin).
A further data set has as its target Cytochrome P450 3A5 (Homo sapiens, UniProt P20815). As to the kind of experiment: Competitive inhibition of human recombinant CYP3A5 expressed in baculovirus-infected insect cells using diltiazem as substrate incubated for 15 mins followed by NADPH-generating system addition by Michaelis-Menten plot analysis. The class given is ADME.
The target of data set [5] is T4, Alpha-2C adrenergic receptor (Homo sapiens, UniProt P18825).
T4 sequence (P18825 whole entry): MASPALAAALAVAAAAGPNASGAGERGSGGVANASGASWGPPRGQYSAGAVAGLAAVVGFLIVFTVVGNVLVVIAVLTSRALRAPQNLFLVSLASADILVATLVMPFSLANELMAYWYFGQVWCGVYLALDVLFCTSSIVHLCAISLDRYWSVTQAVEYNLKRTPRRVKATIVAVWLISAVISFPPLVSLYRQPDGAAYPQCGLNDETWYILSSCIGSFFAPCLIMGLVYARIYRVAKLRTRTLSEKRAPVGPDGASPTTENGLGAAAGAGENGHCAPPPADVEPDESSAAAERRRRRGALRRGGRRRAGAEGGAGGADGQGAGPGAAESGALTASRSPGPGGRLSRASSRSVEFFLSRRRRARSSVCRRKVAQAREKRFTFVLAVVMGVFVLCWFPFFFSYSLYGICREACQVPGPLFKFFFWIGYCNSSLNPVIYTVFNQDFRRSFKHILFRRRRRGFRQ
The data set is described as follows: Inhibition of alpha2C receptor (unknown origin).

A short description of data set [6]: Half-life in human at 20 mg, iv measured after 0.05 to 72 hrs by gas chromatograph mass spectrometry. The settings on record: in vivo, time 0.05-72 hrs. The class given is ADME, organism-based.
A short description of data set [7]: Cmax in human plasma at 3.5 +/- 5.5 mg, INH. In kind it is ADME, cell-free. Also noted: dose 3.5 mg. The settings on record: inhaled or intranasal, 3.5 mg.

SMILES strings stand for the structures.

Chain of D(1A) dopamine receptor (P21728 whole entry): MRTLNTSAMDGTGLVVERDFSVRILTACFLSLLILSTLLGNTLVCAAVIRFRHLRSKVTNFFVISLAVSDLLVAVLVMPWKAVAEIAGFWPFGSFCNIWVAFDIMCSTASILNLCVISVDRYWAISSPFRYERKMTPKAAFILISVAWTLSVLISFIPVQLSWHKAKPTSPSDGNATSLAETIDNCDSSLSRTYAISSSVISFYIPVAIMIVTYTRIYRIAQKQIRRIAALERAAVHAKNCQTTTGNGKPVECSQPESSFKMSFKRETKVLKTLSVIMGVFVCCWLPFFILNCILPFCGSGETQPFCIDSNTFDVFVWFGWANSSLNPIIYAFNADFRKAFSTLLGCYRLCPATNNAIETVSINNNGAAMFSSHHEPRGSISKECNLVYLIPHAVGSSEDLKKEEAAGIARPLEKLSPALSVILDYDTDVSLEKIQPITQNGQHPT
Chain of Cytochrome P450 3A5 (P20815 whole entry): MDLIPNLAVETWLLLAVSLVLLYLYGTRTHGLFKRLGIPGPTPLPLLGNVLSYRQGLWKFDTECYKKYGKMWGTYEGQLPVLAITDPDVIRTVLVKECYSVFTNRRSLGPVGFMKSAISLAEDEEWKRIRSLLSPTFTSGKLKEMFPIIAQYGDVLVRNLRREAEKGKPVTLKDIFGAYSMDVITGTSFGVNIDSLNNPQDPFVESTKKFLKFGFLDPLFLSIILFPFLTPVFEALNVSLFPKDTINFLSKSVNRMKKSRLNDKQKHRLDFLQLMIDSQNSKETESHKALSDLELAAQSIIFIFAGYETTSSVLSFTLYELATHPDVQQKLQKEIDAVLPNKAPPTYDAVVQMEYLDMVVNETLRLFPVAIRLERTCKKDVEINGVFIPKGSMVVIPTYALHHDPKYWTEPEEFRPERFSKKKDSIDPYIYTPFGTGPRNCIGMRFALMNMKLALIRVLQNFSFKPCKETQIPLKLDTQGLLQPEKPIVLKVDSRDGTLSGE
Chain of Histamine H3 receptor (Q9Y5N1 whole entry): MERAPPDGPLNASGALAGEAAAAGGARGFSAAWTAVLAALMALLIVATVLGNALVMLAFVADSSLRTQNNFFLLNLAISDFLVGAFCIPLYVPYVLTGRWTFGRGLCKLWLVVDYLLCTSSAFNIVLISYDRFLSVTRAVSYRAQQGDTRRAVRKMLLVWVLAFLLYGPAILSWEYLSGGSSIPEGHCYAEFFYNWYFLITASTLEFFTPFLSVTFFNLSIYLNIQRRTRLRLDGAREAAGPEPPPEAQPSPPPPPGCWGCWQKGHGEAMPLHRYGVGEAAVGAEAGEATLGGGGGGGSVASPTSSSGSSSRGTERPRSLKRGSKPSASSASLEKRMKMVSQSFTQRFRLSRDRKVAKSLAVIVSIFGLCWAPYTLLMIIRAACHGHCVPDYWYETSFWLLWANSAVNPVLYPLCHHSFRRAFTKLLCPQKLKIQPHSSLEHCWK

Take `C=C(C)[C@@H]1CCC(C)=C[C@H]1c1c(O)cc(CCCCC)cc1O` [CANNABIDIOL]: the degraded at 2 h in [1] is 98%. Also, in data set [2], the volume of distribution (Vd) – broadly, the apparent volume that relates the amount in the body to the concentration in plasma or blood – was found to be 2520 L. Further, the half-life in data set [3] is 2 h; in [6], 24 h. The Ki on Cytochrome P450 2B6 was found to be 0.69 µM; on Histamine H3 receptor, 3.1 µM; at Cytochrome P450 2C11 it was 20.7 µM; at Cytochrome P450 1A2 it was 2.69 µM; on D(1A) dopamine receptor, 2.7 µM; on Cytochrome P450 3A5 it was 0.19 µM. The Ki in data set [5] was 3.7 µM. In addition, the “beta t1/2” value in data set [4] turned out to be 2 h. The Cmax (commonly the peak of the concentration-time curve) in [7] was found to be 0.0111 µM.
